In PubChem BioAssay (NCI):
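How tested: cells in 96-well plates exposed to compound for 48 hours at five concentrations. At the TGI there is no net growth.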

Legend:
Test in all cases: NCI-60 cell line screen, 48 h
OVCAR-5 ovarian = test system: OVCAR-5 ovarian
M14 melanoma = test system: M14 melanoma
CCRF-CEM leukemia = test system: CCRF-CEM leukemia
U251 CNS = test system: U251 CNS
MDA-N = test system: MDA-N
OVCAR-4 ovarian = test system: OVCAR-4 ovarian
TK-10 renal = test system: TK-10 renal
HOP-92 NSCLC = test system: HOP-92 NSCLC
RXF 393 renal = test system: RXF 393 renal
MCF7 breast = test system: MCF7 breast
NCI-H460 lung = test system: NCI-H460 lung
UACC-257 melanoma = test system: UACC-257 melanoma
BT-549 breast = test system: BT-549 breast
SK-MEL-28 melanoma = test system: SK-MEL-28 melanoma
SK-MEL-5 melanoma = test system: SK-MEL-5 melanoma
SR leukemia = test system: SR leukemia
SF-539 CNS = test system: SF-539 CNS
CAKI-1 renal = test system: CAKI-1 renal
HCT-15 colon = test system: HCT-15 colon
MALME-3M melanoma = test system: MALME-3M melanoma
RPMI-8226 leukemia = test system: RPMI-8226 leukemia
K-562 leukemia = test system: K-562 leukemia
NCI-H522 lung = test system: NCI-H522 lung
NCI-H23 lung = test system: NCI-H23 lung
T-47D breast = test system: T-47D breast
A549 NSCLC = test system: A549 NSCLC
SW-620 colon = test system: SW-620 colon
IGROV1 ovarian = test system: IGROV1 ovarian
OVCAR-3 ovarian = test system: OVCAR-3 ovarian
ACHN renal = test system: ACHN renal
HOP-62 NSCLC = test system: HOP-62 NSCLC
HL-60(TB) leukemia = test system: HL-60(TB) leukemia
UO-31 renal = test system: UO-31 renal
SF-295 CNS = test system: SF-295 CNS
MDA-MB-435 = test system: MDA-MB-435
SNB-19 CNS = test system: SNB-19 CNS
A498 renal = test system: A498 renal
786-0 renal = test system: 786-0 renal
SK-OV-3 ovarian = test system: SK-OV-3 ovarian
NCI/ADR-RES ovarian = test system: NCI/ADR-RES ovarian
HCT-116 colon = test system: HCT-116 colon
MOLT-4 leukemia = test system: MOLT-4 leukemia
OVCAR-8 ovarian = test system: OVCAR-8 ovarian
NCI-H226 lung = test system: NCI-H226 lung
SF-268 CNS = test system: SF-268 CNS
PC-3 prostate = test system: PC-3 prostate
DU-145 prostate = test system: DU-145 prostate
HT29 colon = test system: HT29 colon
SN12C renal = test system: SN12C renal
KM12 colon = test system: KM12 colon
COLO 205 colon = test system: COLO 205 colon
HS 578T breast = test system: HS 578T breast
MDA-MB-231 breast = test system: MDA-MB-231 breast
LOX IMVI melanoma = test system: LOX IMVI melanoma
SK-MEL-2 melanoma = test system: SK-MEL-2 melanoma
EKVX NSCLC = test system: EKVX NSCLC
SNB-75 CNS = test system: SNB-75 CNS
UACC-62 melanoma = test system: UACC-62 melanoma

`COC(=O)CCC(C)[C@H]1CCC2C3C(C[C@H](OC(C)=O)[C@@]21C)[C@@]1(C)CCC2(C[C@H]1C[C@H]3OC(C)=O)OOC1(CCCCCCC1)OO2` (some centres not stated) gave a TGI (OVCAR-5 ovarian) of over 100 µM, a TGI (M14 melanoma) of over 100 µM and a TGI (CCRF-CEM leukemia) of over 100 µM. It also gave a TGI (U251 CNS) of over 100 µM, a TGI (MDA-N) of over 100 µM and a TGI (OVCAR-4 ovarian) of over 100 µM. For the same molecule, the TGI (TK-10 renal) was over 100 µM, the TGI (HOP-92 NSCLC) was over 100 µM and the TGI (RXF 393 renal) was over 100 µM. For the same molecule, the TGI (MCF7 breast) was over 100 µM, the TGI (NCI-H460 lung) was over 100 µM and the TGI (UACC-257 melanoma) was over 100 µM. It also gave a TGI (BT-549 breast) of over 100 µM, a TGI (SK-MEL-28 melanoma) of over 100 µM and a TGI (SK-MEL-5 melanoma) of over 100 µM. The TGI (SR leukemia) was over 100 µM, the TGI (SF-539 CNS) was over 100 µM and the TGI (CAKI-1 renal) was over 100 µM. For the same molecule, the TGI (HCT-15 colon) was over 100 µM, the TGI (MALME-3M melanoma) was over 100 µM and the TGI (RPMI-8226 leukemia) was 6.21 µM. For the same molecule, the TGI (K-562 leukemia) was over 100 µM, the TGI (NCI-H522 lung) was over 100 µM and the TGI (NCI-H23 lung) was over 100 µM. The TGI (T-47D breast) was over 100 µM, the TGI (A549 NSCLC) was over 100 µM and the TGI (SW-620 colon) was over 100 µM. The TGI (IGROV1 ovarian) was over 100 µM, the TGI (OVCAR-3 ovarian) was over 100 µM and the TGI (ACHN renal) was over 100 µM. For the same molecule, the TGI (HOP-62 NSCLC) was 52.7 µM, the TGI (HL-60(TB) leukemia) was over 100 µM and the TGI (UO-31 renal) was 28.8 µM. It also gave a TGI (SF-295 CNS) of over 100 µM, a TGI (MDA-MB-435) of over 100 µM and a TGI (SNB-19 CNS) of over 100 µM. It also gave a TGI (A498 renal) of over 100 µM, a TGI (786-0 renal) of over 100 µM and a TGI (SK-OV-3 ovarian) of over 100 µM. It also gave a TGI (NCI/ADR-RES ovarian) of over 100 µM, a TGI (HCT-116 colon) of over 100 µM and a TGI (MOLT-4 leukemia) of over 100 µM. The TGI (OVCAR-8 ovarian) was over 100 µM, the TGI (NCI-H226 lung) was 50 µM and the TGI (SF-268 CNS) was over 100 µM. It also gave a TGI (PC-3 prostate) of over 100 µM, a TGI (DU-145 prostate) of over 100 µM and a TGI (HT29 colon) of over 100 µM. For the same molecule, the TGI (SN12C renal) was over 100 µM, the TGI (KM12 colon) was over 100 µM and the TGI (COLO 205 colon) was over 100 µM. For the same molecule, the TGI (HS 578T breast) was over 100 µM, the TGI (MDA-MB-231 breast) was over 100 µM and the TGI (LOX IMVI melanoma) was over 100 µM. The TGI (SK-MEL-2 melanoma) was over 100 µM, the TGI (EKVX NSCLC) was over 100 µM and the TGI (SNB-75 CNS) was over 100 µM.
Work on `CC(NC(=O)CNP(=O)(c1ccccc1)c1ccccc1)C(=O)NC(Cc1ccccc1)C(=O)OCc1ccccc1` (configuration not stated) yielded a TGI (OVCAR-5 ovarian) of over 100 µM, a TGI (M14 melanoma) of over 100 µM and a TGI (CCRF-CEM leukemia) of over 10 µM. It also gave a TGI (U251 CNS) of 62.3 µM, a TGI (MDA-N) of over 100 µM and a TGI (TK-10 renal) of over 100 µM. The TGI (HOP-92 NSCLC) was over 100 µM, the TGI (RXF 393 renal) was 75.5 µM and the TGI (MCF7 breast) was 55 µM. It also gave a TGI (UACC-257 melanoma) of over 100 µM, a TGI (BT-549 breast) of over 100 µM and a TGI (SK-MEL-28 melanoma) of 49.3 µM. The TGI (SK-MEL-5 melanoma) was 60.5 µM, the TGI (SR leukemia) was 70.8 µM and the TGI (SF-539 CNS) was over 100 µM. It also gave a TGI (CAKI-1 renal) of over 100 µM, a TGI (HCT-15 colon) of over 100 µM and a TGI (MALME-3M melanoma) of over 100 µM. For the same molecule, the TGI (RPMI-8226 leukemia) was 98.5 µM, the TGI (K-562 leukemia) was over 10 µM and the TGI (NCI-H522 lung) was 49.8 µM. For the same molecule, the TGI (NCI-H23 lung) was over 100 µM, the TGI (T-47D breast) was over 100 µM and the TGI (UACC-62 melanoma) was over 100 µM. For the same molecule, the TGI (A549 NSCLC) was over 100 µM, the TGI (SW-620 colon) was over 100 µM and the TGI (IGROV1 ovarian) was over 100 µM. For the same molecule, the TGI (OVCAR-3 ovarian) was over 100 µM, the TGI (HOP-62 NSCLC) was over 100 µM and the TGI (HL-60(TB) leukemia) was over 100 µM. It also gave a TGI (UO-31 renal) of over 100 µM, a TGI (SF-295 CNS) of 42.5 µM and a TGI (MDA-MB-435) of over 100 µM. The TGI (SNB-19 CNS) was over 100 µM, the TGI (A498 renal) was over 100 µM and the TGI (786-0 renal) was 48.1 µM. For the same molecule, the TGI (SK-OV-3 ovarian) was 51.3 µM, the TGI (NCI/ADR-RES ovarian) was over 100 µM and the TGI (HCT-116 colon) was over 100 µM. The TGI (MOLT-4 leukemia) was 47.1 µM, the TGI (OVCAR-8 ovarian) was over 100 µM and the TGI (NCI-H226 lung) was over 100 µM. The TGI (SF-268 CNS) was 57.2 µM, the TGI (PC-3 prostate) was over 100 µM and the TGI (DU-145 prostate) was over 100 µM. It also gave a TGI (HT29 colon) of over 100 µM, a TGI (SN12C renal) of over 100 µM and a TGI (KM12 colon) of over 100 µM. The TGI (COLO 205 colon) was over 10 µM, the TGI (HS 578T breast) was over 100 µM and the TGI (MDA-MB-231 breast) was 96.6 µM. It also gave a TGI (LOX IMVI melanoma) of 87.8 µM, a TGI (SK-MEL-2 melanoma) of over 100 µM and a TGI (EKVX NSCLC) of over 100 µM. It also gave a TGI (SNB-75 CNS) of 48.5 µM.
